Measurements as given in patent US20250230193A1, “CYCLIC COMPOUND HAVING SELECTIVE KRAS INHIBITORY EFFECT ON HRAS AND NRAS” (CHUGAI SEIYAKU KABUSHIKI KAISHA, priority 2022, published 2025).
Where a SMILES comes first, the peptide text is derived from it. Bridges are numbered along the chain shown (N, C = ends). [ ]: non-standard residue; d: D form. The star is where a group is joined. hPhe(3-Cl-4-CF3) = N[C@@H](CCc1ccc(C(F)(F)F)c(Cl)c1)C(=O)O; NPrPhe(4-CF3) = CCCN[C@@H](Cc1ccc(C(F)(F)F)cc1)C(=O)O; NEtPhe(4-F) = CCN[C@@H](Cc1ccc(F)cc1)C(=O)O; NMeGly(cPent) = CN[C@H](C(=O)O)C1CCCC1; NMeD = CN[C@@H](CC(=O)O)C(=O)O; NMeL = CN[C@@H](CC(C)C)C(=O)O; Morpholide = C1CN(*)CCO1; Ac5c = NC1(C(=O)O)CCCC1; NcPrGly = O=C(O)CNC1CC1; Sar = CNCC(=O)O

Tests used:
[1] = target: GDP-bound HRAS wild-type protein (Homo sapiens, UniProt P01112); assay: Binding to HRAS by surface plasmon resonance (SPR), Single Cycle Kinetics
[2] = target: GDP-bound NRAS wild-type protein (Homo sapiens, UniProt P01111); assay: Binding to NRAS by surface plasmon resonance (SPR), Single Cycle Kinetics
[3] = KD ratio, GDP-bound HRAS wild-type vs GDP-bound KRAS wild-type, SPR
[4] = KD ratio, GDP-bound NRAS wild-type vs GDP-bound KRAS wild-type, SPR

Chain of GDP-bound NRAS wild-type protein (P01111 whole entry): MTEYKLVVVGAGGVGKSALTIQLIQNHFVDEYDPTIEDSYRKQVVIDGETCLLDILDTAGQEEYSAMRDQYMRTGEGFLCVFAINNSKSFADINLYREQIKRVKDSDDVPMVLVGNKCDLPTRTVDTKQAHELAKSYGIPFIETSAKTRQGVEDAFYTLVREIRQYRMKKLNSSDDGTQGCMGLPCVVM
Chain of GDP-bound HRAS wild-type protein (P01112 whole entry): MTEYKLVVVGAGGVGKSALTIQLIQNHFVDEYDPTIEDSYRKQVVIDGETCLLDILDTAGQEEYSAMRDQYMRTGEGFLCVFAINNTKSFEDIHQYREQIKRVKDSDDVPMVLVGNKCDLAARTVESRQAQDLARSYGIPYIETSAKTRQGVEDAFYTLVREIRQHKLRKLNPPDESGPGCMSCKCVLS

**Q.** Which results are given for `CCCN1C(=O)CN(C)C(=O)CN(C2CC2)C(=O)[C@H]([C@@H](C)CC)NC(=O)[C@H](CC(C)C)N(C)C(=O)C[C@@H](C(=O)N2CCOCC2)N(C)C(=O)[C@H](C2CCCC2)N(C)C(=O)C2(CCCC2)NC(=O)[C@@H]2CCCN2C(=O)[C@H](CCc2ccc(C(F)(F)F)c(Cl)c2)NC(=O)CN(C)C(=O)[C@@H]1Cc1ccc(C(F)(F)F)cc1` [PP0252] ([NMeL]I[NcPrGly][Sar][NPrPhe(4-CF3)][Sar][hPhe(3-Cl-4-CF3)]P[Ac5c][NMeGly(cPent)][NMeD]-Morpholide; lactam N-11)?
**A.** HRAS/KRAS (ratio of KD for GDP-bound HRAS wild-type to KD for KRAS) ([1]; SPR): B (a compound having 3 or more and less than 10 is denoted as B); NRAS/KRAS (ratio of KD for GDP-bound NRAS wild-type to KD for KRAS) ([2]; SPR): B (a compound having 3 or more and less than 10 is denoted as B)

**Q.** What does the source list for `CC[C@H](C)[C@@H]1NC(=O)[C@H](CC(C)C)N(C)C(=O)C[C@@H](C(=O)N2CCOCC2)N(C)C(=O)[C@H](C2CCCC2)N(C)C(=O)C2(CCCC2)NC(=O)[C@@H]2CCCN2C(=O)[C@H](CCc2ccc(C(F)(F)F)c(Cl)c2)NC(=O)CN(C)C(=O)[C@H](Cc2ccc(F)cc2)N(CC)C(=O)CN(C)C(=O)CN(C)C1=O` [PP0213] ([NMeL]I[Sar][Sar][NEtPhe(4-F)][Sar][hPhe(3-Cl-4-CF3)]P[Ac5c][NMeGly(cPent)][NMeD]-Morpholide; lactam N-11)?
**A.** HRAS/KRAS (ratio of KD for GDP-bound HRAS wild-type to KD for KRAS) ([1]; SPR): C (A compound having a KD ratio of 0.1 or more and less than 3 is denoted as C); NRAS/KRAS (ratio of KD for GDP-bound NRAS wild-type to KD for KRAS) ([2]; SPR): C (A compound having a KD ratio of 0.1 or more and less than 3 is denoted as C)

**Q.** Which “HRAS/KRAS (ratio of KD value with respect to HRAS to KD value with respect to KRAS)” value [1, 3] does the source give for `CC[C@H](C)[C@@H]1NC(=O)[C@H](CC(C)C)N(C)C(=O)C[C@@H](C(=O)N2CCOCC2)N(C)C(=O)[C@H](C2CCCC2)N(C)C(=O)C2(CCC2)NC(=O)[C@@H]2[C@@H](OCC3CC3)CCN2C(=O)[C@H](CCc2cc(F)c(C(F)(F)F)c(F)c2)NC(=O)CN(C)C(=O)[C@H](Cc2ccc(C(F)(F)F)cc2)N2CCCC[C@@H](C2=O)N(C)C(=O)CN(C)C1=O` [PP1072] here?
**A.** B (a compound having 3 or more and less than 10 is denoted as B)

**Q.** And the “NRAS/KRAS (ratio of KD value with respect to NRAS to KD value with respect to KRAS)” value [2, 4]?
**A.** B (a compound having 3 or more and less than 10 is denoted as B)

**Q.** Which “HRAS/KRAS (ratio of KD value with respect to GDP-bound HRAS wild-type protein to KD value with respect to KRAS)” value ([1]; class symbols) does the source give for `CCC[C@H]1C(=O)N[C@@H]([C@@H](C)CC)C(=O)N(C)CC(=O)N(C)[C@H]2C/C=C\CCN(C2=O)[C@@H](Cc2ccc(C)cc2)C(=O)N(C)CC(=O)N[C@@H](CCc2ccc3sc(F)c(C)c3c2)C(=O)N2C[C@H](OCC)C[C@H]2C(=O)NC2(CC(C)(C)C2)C(=O)N(C)[C@@H](C2CCCC2)C(=O)N(C)[C@H](C(=O)N(C)C)CC(=O)N1C` [PP2949] here?
**A.** A (a compound having 10 or more and less than 20 is denoted as A)

**Q.** What about the “NRAS/KRAS (ratio of KD value with respect to GDP-bound NRAS wild-type protein to KD value with respect to KRAS)” value ([2]; class symbols) of the same compound?
**A.** A (a compound having 10 or more and less than 20 is denoted as A)

**Q.** How did the “HRAS/KRAS (ratio of KD value with respect to HRAS to KD value with respect to KRAS)” value ([1]; SPR, GDP-bound HRAS wild-type vs GDP-bound KRAS wild-type) turn out when `CCO[C@@H]1C[C@H]2C(=O)NC3(CC(C)(C)C3)C(=O)N(C)[C@@H](C(CC)CC)C(=O)N(C)[C@H](C(=O)N(C)C)CC(=O)N(C)[C@@H](COC)C(=O)N[C@@H]([C@@H](C)CC)C(=O)N(C)CC(=O)N(C)[C@H]3C/C=C\CCN(C3=O)[C@@H](Cc3ccc(C(F)(F)F)cc3)C(=O)N(C)CC(=O)N[C@@H](CCc3cc(F)c(C(F)(F)F)c(F)c3)C(=O)N2C1` [PP2121] was run?
**A.** A (a compound having 10 or more and less than 20 is denoted as A)

**Q.** And the “NRAS/KRAS (ratio of KD value with respect to NRAS to KD value with respect to KRAS)” value ([2]; SPR, GDP-bound NRAS wild-type vs GDP-bound KRAS wild-type)?
**A.** AA (a compound having 20 or more is denoted as AA)

**Q.** With `CC[C@H](C)[C@@H]1NC(=O)[C@H](CC(C)C)N(C)C(=O)C[C@@H](C(=O)N2CCOCC2)N(C)C(=O)[C@H](C2CCCC2)N(C)C(=O)C2(CCCCC2)NC(=O)[C@@H]2CCCN2C(=O)[C@H](CCc2cc(F)c(C(F)(F)F)c(F)c2)NC(=O)CN(C)C(=O)[C@H](Cc2ccc(C(F)(F)F)cc2)N2CCCC[C@@H](C2=O)N(C)C(=O)CN(C)C1=O` [PP0561] as the compound, how does the “HRAS/KRAS (ratio of KD value with respect to GDP-bound HRAS wild-type protein to KD value with respect to KRAS)” value ([1]; SPR) read?
**A.** B (a compound having 3 or more and less than 10 is denoted as B)

**Q.** What about the “NRAS/KRAS (ratio of KD value with respect to GDP-bound NRAS wild-type protein to KD value with respect to KRAS)” value ([2]; SPR) of the same compound?
**A.** B (a compound having 3 or more and less than 10 is denoted as B)

**Q.** How did the “HRAS/KRAS (ratio of KD value for HRAS to KD value for KRAS)” value [1, 3] turn out when `CC[C@H](C)[C@@H]1NC(=O)[C@H](CC)N(C)C(=O)C[C@@H](C(=O)N(C)C)N(C)C(=O)[C@H](C2CCCC2)N(C)C(=O)C2(CC(C)(C)C2)NC(=O)[C@@H]2C[C@@H](C)CN2C(=O)[C@H](CCc2ccc(C(F)(F)F)c(Cl)c2)NC(=O)CN(C)C(=O)[C@H](Cc2ccc(C)cc2)N2CC/C=C\C[C@@H](C2=O)N(C)C(=O)CN(C)C1=O` [PP1846] was run?
**A.** B (a compound having 3 or more and less than 10 is denoted as B)

**Q.** And the “NRAS/KRAS (ratio of KD value for NRAS to KD value for KRAS)” value [2, 4]?
**A.** A (a compound having 10 or more and less than 20 is denoted as A)
